In ChEMBL document CHEMBL1148105, “Bioactive metabolites from a marine-derived strain of the fungus Emericella variecolor” (2002) one finds MIC data, which are given here for four molecules.

Type in all cases: functional
One assay has as its system Bacillus subtilis. The assay can be described thus: Antimicrobial activity against Bacillus subtilis.
The next assay relates to Staphylococcus aureus. The assay can be described thus: Antimicrobial activity against Staphylococcus aureus.
The next assay relates to Escherichia coli. The assay can be described thus: Antimicrobial activity against Escherichia coli.
The next assay relates to Enterococcus faecalis. The experiment in a line: Antimicrobial activity against Enterococcus faecalis.
Another assay concerns Proteus sp. The experiment in a line: Antimicrobial activity against Proteus sp. The note with it: Proteus sp. (in: enterobacteria).

Broadly, the MIC is the lowest concentration that inhibits growth of the organism. A high value points to a less susceptible organism.

Structures are written as SMILES. ≈ marks a conversion by molar mass, not a printed value.

Consider `C=C(C)[C@H]1COc2c(C)cc3oc4c(CC=C(C)C)ccc(O)c4c(=O)c3c2[C@@H]1O` [SHAMIXANTHONE], for which the MIC against Bacillus subtilis, against Staphylococcus aureus, against Escherichia coli and against Enterococcus faecalis was 50 µg/mL (≈ 123 µM) each time.
In the case of `C=C(C)[C@H]1COc2c(C)cc3oc4c(C[C@H](O)C(C)(C)O)ccc(O)c4c(=O)c3c2[C@@H]1O.O` [TAJIXANTHONE HYDRATE], the MIC with Bacillus subtilis, against Staphylococcus aureus, in the assay on Escherichia coli and against Enterococcus faecalis was 50 µg/mL each time.
Turning to `C/C=C/C1=CC(=O)[C@@H](O)[C@@H]1O` [TERREIN], the MIC in the assay on Bacillus subtilis, against Staphylococcus aureus, in the assay on Escherichia coli and in the assay on Enterococcus faecalis was 50 µg/mL (≈ 324 µM) each time.
In the case of `C=C(C)[C@H]1COc2c(C)cc3oc4c(C[C@H](OC=O)C(C)(C)O)ccc(O)c4c(=O)c3c2[C@@H]1O` [VARIXANTHONE], the MIC against Bacillus subtilis was found to be 12.5 µg/mL (≈ 26.7 µM); against Staphylococcus aureus it was 12.5 µg/mL (≈ 26.7 µM); against Escherichia coli it was 12.5 µg/mL (≈ 26.7 µM); with Proteus sp., 12.5 µg/mL (≈ 26.7 µM); in the assay with Enterococcus faecalis, 50 µg/mL (≈ 107 µM).
